{
  "source": "patent US7910568B2",
  "about": "“Derivatives of 4- or 5-aminosalicylic acid” (Antibe Therapeutics Inc., priority 2005, dated 2011)",
  "key": {"[1]": {"system": "visceral pain perception in response to colorectal distension", "assay": "Rat model of visceral pain perception, colorectal distension, abdominal withdrawal reflex score", "assay_type": "in vivo", "settings": "for Pain perception score after glibenclamide pretreatment: glibenclamide 10 mg/kg i.p. 30 min before", "procedure": "A rat model of visceral pain perception, a pre-clinical model of irritable bowel syndrome, was used in the following example. Rats (male, Wistar, 200-250 g, obtained from Charles River, Monza, Italy), were housed in plastic cages and maintained under controlled conditions with 12-hours light/dark cycle with lights on at 7.00 AM. Tap water and standard laboratory chow were freely available. Before experiments, rats were individually trained by spending 2-3 hours per day in a plexiglass cage for 2-3 days. It allowed them to adjust to a movement-restriction environment. Food was withheld for 12 hours before colorectal distension (CRD) recording were performed. Experiments were performed in awake rats and were conducted in a blind manner in that the observer was not aware of the identity of drug administered to each animal.\nIn the testing day, rats were sedated with ether inhalation and a 2 cm long latex balloon was inserted intrarectally 2 cm from the anal verge and fixed at the base of the tail. The balloon was connected via a double-barreled cannula to a pressure transducer to continuously monitoring the rectal pressure by a computer (PowerLab PC, A.D. Instruments, Milford, Mass., USA) and to a syringe for inflation/deflation of the balloon. The rats were then housed in a small cage (20×8×8 cm) on an elevated Plexiglas™ platform and allowed to wake up and adapt for 1 hour. After recovery from sedation, animals underwent the CRD procedure and behavioral responses were tested. The night before the experiments, the balloons were inflated and left overnight so the latex stretched and the balloons became compliant.\nCRD of 20 seconds, performed every 5 minutes, was applied in increment of 0.4 ml starting from 0.4 ml up to 1.6 ml water. To achieve an accurate measurement of the colonic parameters and perception, the distensions were repeated twice for each intensity and data for each animal were averaged for analysis. Each animal underwent a double set of CRD. Twenty minutes after the first sequence of CRD (0.4 mL-1.6 ml water), drugs were administered intraperitoneally (i.p.) and a second set of CRD was performed. Behavioral responses during the first and the second set of CRD were assessed and compared.\nBehavioral response to CRD was assessed by measuring the abdominal withdrawal reflex (AWR) using a semiquantitative score (1).\nThe effects of mesalamine and Compound XXXV on colonic compliance and sensitivity were determined using a total of 8 fasting rats. To investigate whether the administration of mesalamine and Compound XXXV could revert pain induced by CRD, after the first sequence of CRD, […], after which a second set of CRD was repeated.\nAll data are presented as the mean±SEM, with sample sizes of 4 rats/group; statistical comparison of paired data was performed by the Wilcoxon signed rank test. An associated probability (p value) of less that 5% was considered significant."}, "[2]": {"assay": "H2S generation in buffer, liver homogenate and liver homogenate with PAG, sulfide sensitive electrode", "assay_type": "in vitro ADME, rat", "settings": "1 mM compound, FIG. 21; for H2S release in buffer: potassium phosphate buffer pH 7.4, 37° C.; for Effect of PAG (DL-propargylglycine) on H2S generation in liver homogenate: PAG 2 mM, inhibitor of cystathionine γ-lyase"}, "thoracic aorta rings": {"system": "thoracic aorta rings", "assay": "Vasorelaxant effect on phenylephrine-precontracted thoracic aorta rings", "design": "species or system CD-1 mice", "settings": "cumulative 10 nM-3 mM on PE (1 μM) precontracted rings with endothelium; FIG. 22", "procedure": "CD-1 mice were sacrificed and thoracic aorta was rapidly dissected and cleaned from fat and connective tissue. […] Changes in isometric tension were recorded with PowerLab™ data acquisition system (Ugo Basile, Italy). […] Rings were initially stretched until a resting tension of 1.5 g was reached and allowed to equilibrate for at least 40 minutes during which tension was adjusted, when necessary, to 1.5 g and bathing solution was periodically changed.\nVehicle represents buffer but no compound. Curves to tested compounds were constructed in presence of endothelium.\nData obtained are shown in FIG. 22 and are expressed as mean±SEM. The level of statistical significance was determined by 2-way analysis of variance (ANOVA) followed by Bonferroni's test for multiple comparison, using the GraphPad™ software."}, "TNBS-induced colitis": {"system": "TNBS-induced colitis", "assay": "TNBS-induced colitis in mice, disease activity score", "assay_type": "in vivo", "settings": "Compound XXVII 100 mg/kg vs mesalamine 50 mg/kg, 4-HTB 50 mg/kg and their mixture; FIG. 5", "procedure": "(§1) A standard experimental animal model of colitis induced by intracolonic administration of 2,4,6-trinitrobenzene sulfonic acid (TNBS) to mice is used in the following example. A detailed description of this model has been published (Santucci et al. (2003) Gastroenterology 124:1381-94) and is incorporated herein by reference. Briefly, 6-8 week old Balb/c mice were given TNBS intracolonically at a dose of 1.5 mg in 0.1 mL of 30% ethanol. The mice were randomized to the various treatment groups (n=6 per group). Beginning one hour later and continuing every 12 h for 5 days, the mice were treated orally with vehicle (1% carboxymethylcellulose (CMC)), 5-ASA (mesalamine) (25, 50 or 75 mg/kg) or with equimolar doses of 2-hydroxy-5-amino-benzoic acid 4-(thioxo-5H-[1,2]dithiol-3-yl)-phenyl ester hydrochloride (Compound XXXV) (130 mg/kg), or with […] (100 mg/kg), 50% (66 mg/kg) and 25% (33 mg/kg) of that dose. The mice were evaluated (blindly) on the final day of the study for the presence of diarrhea and fecal occult blood, and their body weights were measured. […] After sacrifice, a sample of the colon was excised for measurement of myeloperoxidase (MPO) activity, as a marker of granulocyte infiltration. All results were compared to those obtained with healthy mice as well."}, "[3]": {"system": "myeloperoxidase (MPO) activity", "assay": "TNBS-induced colitis in mice, colonic myeloperoxidase (MPO) activity as marker of granulocyte infiltration", "assay_type": "in vivo", "settings": "Compound XXVII 100 mg/kg; FIG. 6", "procedure": "as §1"}, "[4]": {"system": "leukocyte adherence to the vascular endothelium", "assay": "Aspirin-induced leukocyte adherence to the vascular endothelium, intravital microscopy of mesenteric venules", "assay_type": "in vivo, rat", "procedure": "Leukocyte adherence was studied using intravital microscopy, as described in detail previously (Wallace et al., (1993) Am. J. Physiol. 265: 993-998, incorporated hereto by reference). Rats were anesthetized with pentobarbital sodium (60 mg/kg i.p.) and cautery incisions were made along the abdominal region. A tracheotomy was performed to facilitate breathing. The rats were placed in a supine position, and a segment of the mesentery was exteriorized through the abdominal incision. The mesentery was carefully placed over an optically clear viewing pedestal that allowed for trans-illumination of a 2-cm^2 segment of tissue. All exposed tissue was covered with saline-soaked gauze to minimize dehydration. The temperature of the pedestal was kept at 37° C. and the mesentery was superfused with warmed bicarbonate-buffered saline (pH 7.4). An intravital microscope (Nikon L25/0.35) and a ×10 eyepiece were used to observe the mesenteric microcirculation. Post-capillary venules with diameters ranging from 20 to 40 μm were selected for the study. A video camera mounted on the microscope (Panasonic™ digital 5000) projected the image onto a monitor, and the images were recorded for playback analysis using a videocassette recorder. Images of the mesenteric microcirculation were recorded 5 minutes prior to aspirin administration (baseline), at the time of aspirin administration (time 0-5) and every 15 minutes for 60 minutes. Leukocyte adherence was blindly quantified from videotaped images of the vessels made over 5-min periods as the number of leukocytes that remained stationary along the vessel wall for 30 s or more (expressed per 100 μm venule length). Groups of rats (at least 5 in each) were pretreated with Compound XXXV (130 mg/kg), Compound XXVII (100 mg/kg), mesalamine (50 mg/kg), or vehicle 60 min prior to aspirin (or vehicle) administration. These drugs were given intragastrically. In some experiments, rats were treated with glibenclamide (10 mg/kg i.p.) or vehicle 30 min prior to administration of these compounds."}, "[5]": {"assay": "Viability of HT-29 human colon cancer cells, MTT assay", "assay_type": "cell-based", "settings": "HT-29 colon cancer cells, 72 h exposure, HT-29, MTT, read-out: Cell viability rate as a percent of the vehicle (DMSO)-treated cells", "procedure": "HT-29 cells were grown in culture using standard methods. The cells were exposed to vehicle (DMSO), mesalamine or Compound XXXV. Concentrations ranging from 0.1 to 10 μM were tested, with each concentration tested in 6 wells. At the end of 72 h of exposure to the test drugs, cell viability was measured using the MTT [3-(4,5-dimethylthiaxol-2-yl)-2,5-diphenyltetrazolium bromide] assay (Carmichael et al. (1978) Cancer Res. 47, 936-942), incorporated herein by reference."}, "[6]": {"settings": "after patients have taken the usual doses; Dig. Dis. Sci. 1989; 34: 573-578; cited from earlier work"}, "[7]": {"settings": "equimolar doses: mesalamine 50 mg/kg, Compound XXXV 130 mg/kg, ADT-OH 80 mg/kg, Compound XXVII 100 mg/kg, 4-HTB 50 mg/kg, vs vehicle"}, "[8]": {"settings": "0.8 mL colorectal distention, 100 mg/kg, FIG. 17"}},
  "data": [
    {"smiles": "Oc1ccc(-c2cc(=S)ss2)cc1", "note": "[ADT-OH, 5-p-hydroxyphenyl-1,2-dithione-3-thione, reference compound]", "values": [
      {"measurement": "Pain perception score", "setting": "[1]; [7]", "result": "Only Compound XXXV and Compound XXVII significantly reduced pain perception"},
      {"measurement": "H2S release in buffer", "setting": "[2]", "result": "did not release significant H2S"}
    ]},
    {"smiles": "NC(=S)c1ccc(O)cc1", "note": "[Compound 4-HTB, 4-hydroxythiobenzamide, reference compound]", "values": [
      {"measurement": "Pain perception score", "setting": "[1]; [7]", "result": "Only Compound XXXV and Compound XXVII significantly reduced pain perception"},
      {"measurement": "H2S release in buffer", "setting": "[2]", "result": "did not release significant H2S"},
      {"measurement": "Vasorelaxant effect (% relaxation), concentration dependent, compared to vehicle", "setting": "thoracic aorta rings", "result": "significant vasorelaxant effects"}
    ]},
    {"smiles": "NC(=S)c1ccc(OC(=O)c2cc(N)ccc2O)cc1", "note": "[Compound XXVII, 5-Amino-2-hydroxy-benzoic acid 4-thiocarbamoyl-phenyl ester]", "values": [
      {"measurement": "Disease Activity Index", "setting": "TNBS-induced colitis", "result": "almost three times as effective as either mesalamine alone, 4-HTB alone or a mixture of mesalamine and 4-HTB"},
      {"measurement": "MPO activity (granulocyte infiltration)", "setting": "[3]", "result": "significantly reduced inflammation"},
      {"measurement": "Pain perception score after glibenclamide pretreatment", "setting": "[1]; [8]", "result": "reversed by pretreatment with glibenclamide"},
      {"measurement": "Pain perception score", "setting": "[1]; [8]", "result": "significantly reduced the pain perception"},
      {"measurement": "Pain perception score", "setting": "[1]; [7]", "result": "significantly reduced pain perception"},
      {"measurement": "Aspirin-induced leukocyte adherence, final time period", "setting": "[4]; minutes 60-65, XXXV 130 mg/kg, XXVII 100 mg/kg intragastric, FIG. 20", "result": "suppress aspirin-induced leukocyte adherence"},
      {"measurement": "Aspirin-induced leukocyte adherence, final time period, after glibenclamide pretreatment", "setting": "[4]; minutes 60-65, glibenclamide 10 mg/kg i.p., FIG. 20", "result": "reverse this inhibitor effect"},
      {"measurement": "Effect of PAG (DL-propargylglycine) on H2S generation in liver homogenate", "setting": "[2]", "result": "lack of effect"},
      {"measurement": "H2S release in buffer", "setting": "[2]", "result": "release H2S spontaneously (in buffer)"},
      {"measurement": "H2S release in liver homogenate compared with buffer", "setting": "[2]; rat liver homogenate 10% (wt/vol)", "result": "greater when in the presence of tissue"}
    ]},
    {"smiles": "COc1ccc(Cl)cc1C(=O)NCCc1ccc(S(=O)(=O)NC(=O)NC2CCCCC2)cc1", "note": "[Glibenclamide, glibenclamide, reference compound]", "values": [
      {"measurement": "Leukocyte adherence without aspirin", "setting": "[4]; glibenclamide alone, 10 mg/kg i.p.", "result": "did not affect leukocyte adherence"},
      {"measurement": "Aspirin-induced leukocyte adherence", "setting": "[4]; intragastric pretreatment 60 min prior to aspirin (XXXV 130 mg/kg, mesalamine 50 mg/kg), glibenclamide 10 mg/kg i.p., FIG. 19", "result": "did not affect the magnitude of aspirin-induced leukocyte adherence"}
    ]},
    {"smiles": "N[C@@H](CS)C(=O)O", "note": "[L-cysteine, reference compound]", "values": [
      {"measurement": "Effect of PAG (DL-propargylglycine) on H2S generation in liver homogenate", "setting": "[2]", "result": "markedly inhibited"},
      {"measurement": "H2S release in buffer", "setting": "[2]", "result": "did not release significant H2S"}
    ]},
    {"smiles": "Nc1ccc(O)c(C(=O)O)c1", "note": "[Mesalamine, 5-aminosalicylic acid]", "values": [
      {"measurement": "viability at 72 h, 0.1 µM", "setting": "[5]; 0.1 μM", "result": "104 ± 2.5", "unit": "%"},
      {"measurement": "viability at 72 h, 1 µM", "setting": "[5]; 1 μM", "result": "101 ± 3.5", "unit": "%"},
      {"measurement": "viability at 72 h, 10 µM", "setting": "[5]; 10 μM", "result": "91.1 ± 3.2", "unit": "%"},
      {"measurement": "Pain perception score after glibenclamide pretreatment", "setting": "[1]; [8]", "result": "did not affect the pain perception"},
      {"measurement": "Pain perception score", "setting": "[1]; [8]", "result": "no significant effect"},
      {"measurement": "Pain perception score", "setting": "[1]; [7]", "result": "Only Compound XXXV and Compound XXVII significantly reduced pain perception"},
      {"measurement": "Aspirin-induced leukocyte adherence after glibenclamide pretreatment", "setting": "[4]; glibenclamide 10 mg/kg i.p. 30 min prior to the compound, FIG. 19", "result": "no effect"},
      {"measurement": "Concentration in the colonic lumen", "setting": "[6]", "result": "up to 5 mM"}
    ]},
    {"smiles": "CC(=N)S", "note": "[thioacetamide]", "values": [
      {"measurement": "Vasorelaxant effect (% relaxation), concentration dependent, compared to vehicle", "setting": "thoracic aorta rings", "result": "significant vasorelaxant effects"}
    ]}
  ]
}
